Results published in US20230021329A1, “NANOSTRUCTURED BINARY GEL COMPOSITION AND USE THEREOF” (Veri Nano Inc., priority 2019, published 2023).

Assay: Release study of agents from the gel
Format: physicochemical
[1] = release from hydrogel composition #4, 10 h in PBS

Method: 25 ml of PBS was added to each of the beakers. The beakers were put on a plate shaker (Delfia 1296-004) and shaken at the “low” setting for 10 h. The liquid was centrifuged at 21130 rcf for 10 min, and the supernatants were taken for analysis.
BSA Protein release from the nanoparticles was quantified via nanodrop spectrophotometer to determine the concentration of protein in the supernatant, after creating a nanoparticle pellet on centrifugation, all these after 10 hours of incubation in PBS at room temperature.
The concentration released of the Rhodamine B was determined by talking the supernatant after 10 h, centrifuged and diluted the solution by 10×. Subsequently, the absorbance was measured by using a plate reader (Varioskan Lux) and compared to a calibration curve.

Structure (SMILES): CCN(CC)c1ccc2c(-c3ccccc3C(=O)O)c3ccc(=[N+](CC)CC)cc-3oc2c1.[Cl-] [Rhodamine B]
- amount released [1]: 6.3 mg
- percent release [1]: 5.7%
- concentration in supernatant (release from hydrogel composition #4, supernatant after 10 h, absorbance vs calibration curve): 252 μ/ml
